One assay has as its target T1, Cyclin E/CDK2 (Homo sapiens, UniProt P24941).
T1 construct: made in house; host or cells: insect cells
Description: CDK2 FlashPlate Assay (inhibition of Rb phosphorylation by Cyclin E/CDK2). The following applies: for pIC50: Table IA, recombinant human Cyclin E/CDK2, Rb substrate, 25 minutes room temperature; for inhibition at 1 µM: Table IB, concentration ≤1.0 μM. In kind it is biochemical.

The next assay has as its system MDA-MB-435. Briefly: Cell-based antiproliferative (MTT) assay, MDA-MB-435 breast carcinoma line. To be noted: Homo sapiens, MDA-MB-435, 120 h; 5 days post addition of test compound; mostly one experiment, average where repeated; read-out: MDA-MB435 IC50. Here is the method:
The estrogen receptor negative epithelial breast carcinoma line (MDA-MB-435) was purchased from American Type Cell Culture Collection (ATCC; Rockville, Md.) and was grown in the medium recommended by ATCC. For analysis of the effect of the test compounds on growth of these cells, the cells were plated at 2000 cells per well in a 96-well tissue culture plate, and were incubated overnight at 37° C. with 5% CO2. The next day, the test compounds were dissolved in 100% dimethyl sulfoxide (DMSO) to yield a 10 mM stock solution. Each compound was diluted with sterile medium to 1 mM in a sufficient quantity to yield a final concentration of 120 μM. The compounds were then serially diluted in medium with 1.2% DMSO. One-fourth final volume of the diluted compounds was transferred to 96 well plates. Test compounds were assayed in duplicate. DMSO was added to a row of "control cells" such that the final concentration of DMSO in each well was 0.3%. Wells to which no cells were added served as the "blank." Wells to which no inhibitor was added served as "no inhibitor control". The plates were returned to the incubator, and 5 days post addition of test compound, were analyzed as described below. […] MTT) was added to each well to yield a final concentration of 1 mg/mL. The plates were then incubated at 37° C. for 3 hours. The plates were centrifuged at 1000 rpm for 5 minutes prior to aspiration of the MTT-containing medium. The MTT-containing medium was then removed and 100 μL 100% ethanol was added to each well to dissolve the resulting formazan metabolite. To ensure complete dissolution, plates were shaken for 15 minutes at room temperature. Absorbencies were read in a microtiter plate reader (Molecular Dynamics) at a wavelength of 570 nm with a 650 nm reference. Percent inhibition was calculated by subtracting the absorbance of the blank (no cell) wells from all wells, then subtracting the division of the average absorbance of each test duplicate by the average of the controls from 1.00. Inhibitory concentrations (IC50) were determined from the linear regression of a plot of the logarithm of the concentration versus the percent inhibition.

pIC50: −log10 of the molar value. Where a name gives a salt, the structure may show the parent alone. A value given as a limit tells only on which side of the number the result lay.

As for `Cc1nc[nH]c1/C=C1\C(=O)Nc2ccc(F)c(C#CCOC(N)=O)c21` [WW, (Z)-Carbamic acid 3-[2,3-dihydro-3-[(4-methyl-1H-imidazol-5-yl)methylene]-5-fluoro-2-oxo-1H-indol-4-yl]-2-propynyl ester], the pIC50 at Cyclin E/CDK2 is more than 5.40; with MDA-MB-435 it was more than 5.46.
On the same counts, the results for `CCN(CC)CC#Cc1c(F)ccc2c1/C(=C/c1[nH]cnc1C)C(=O)N2` [Compound BBB, (Z)-4-[3-(N,N-Diethylamino)-1-propynyl]-1,3-dihydro-5-fluoro-3-[(4-methyl-1H-imidazol-5-yl)methylene]-2H-indol-2-one] are more than 5.40 and more than 5.46.
For the compound `Cc1nc[nH]c1/C=C1\C(=O)Nc2ccc(F)c(C#CC(C)(C)N)c21` [VV, (Z)-4-[3-Amino-3-methyl-1-butynyl]-1,3-dihydro-5-fluoro-3-[(4-methyl-1H-imidazol-5-yl)methylene]-2H-indol-2-one], the pIC50 at Cyclin E/CDK2 is more than 5.40; in the assay on MDA-MB-435, more than 5.46.
Consider `Cc1nc[nH]c1/C=C1\C(=O)Nc2ccc(F)c(C#CCN3CCOCC3)c21` [XX, (Z)-1,3-Dihydro-5-fluoro-3-[(4-methyl-1H-imidazol-5-yl)methylene]-4-[3-(4-morpholinyl)-1-propynyl]-2H-indol-2-one], for which the pIC50 was more than 5.40 on Cyclin E/CDK2 and more than 5.46 in the assay with MDA-MB-435.
As to `COC(=O)NCC#Cc1c(F)ccc2c1/C(=C/c1[nH]cnc1C)C(=O)N2` [YY, (Z)-[3-[2,3-Dihydro-5-fluoro-3-[(4-methyl-1H-imidazol-5-yl)methylene]-2-oxo-1H-indol-4-yl]-2-propynyl]carbamic acid methyl ester], the inhibition at 1 µM against Cyclin E/CDK2 is more than 90%. Further, the negative logarithm of the IC50 (pIC50) in the assay on MDA-MB-435 was more than 5.46.
For the compound `CNC(=O)OCC#Cc1cccc2c1/C(=C/c1[nH]ccc1OC)C(=O)N2` [NN, (Z)-N-Methylcarbamic acid 3-[2,3-dihydro-3-[(3-methoxy-1H-pyrrol-2-yl)methylene]-2-oxo-1H-indol-4-yl]-2-propynyl ester], the pIC50 on Cyclin E/CDK2 was more than 5.40.
The same measure, in the same setting: for `CCC(O)C#Cc1cccc2c1/C(=C/c1[nH]ccc1OC)C(=O)N2` (racemic) [R, rac-(Z)-1,3-Dihydro-4-(3-hydroxy-1-pentynyl)-3-[(3-methoxy-1H-pyrrol-2-yl)methylene]-2H-indol-2-one] the value was more than 5.40.
Same read-out and setting: for `COc1cc[nH]c1/C=C1\C(=O)Nc2ccc(NC(=O)c3ccncc3)c(C#CCO)c21` [DD, (Z)-N-[2,3-Dihydro-4-(3-hydroxy-1-propynyl)-3-[(3-methoxy-1H-pyrrol-2-yl)methylene]-2-oxo-1H-indol-5-yl]-4-pyridinecarboxamide] the value was more than 5.40.
For the compound `CCOC(=O)C(CC#Cc1c(F)ccc2c1/C(=C/c1[nH]cnc1C)C(=O)N2)NC(C)=O` (racemic) [AAA, rac-(Z)-2-(Acetylamino)-5-[5-fluoro-2,3,dihydro-3-[(4-methyl-1H-imidazol-5-yl)methylene]-2-oxo-1H-indol-4-yl]-4-pentynoic acid ethyl ester], the pIC50 was more than 5.40 on Cyclin E/CDK2 and more than 5.46 in the assay on MDA-MB-435.
As to `COc1cc[nH]c1/C=C1\C(=O)Nc2cccc(C#CCCCC(=O)O)c21` [G, (Z)-6-[2,3-Dihydro-3-[(3-methoxy-1H-pyrrol-2-yl)methylene]-2-oxo-1H-indol-4-yl]-5-hexynoic acid], the pIC50 at Cyclin E/CDK2 was more than 5.40.
Still for that read-out and setting: for `COc1cc[nH]c1/C=C1\C(=O)Nc2ccc(NC(=O)Cc3cccs3)c(C#CCCC(=O)O)c21` [HH, (Z)-5-[2,3-Dihydro-3-[(3-methoxy-1H-pyrrol-2-yl)methylene]-2-oxo-5-[(2-thienylacetyl)amino]-1H-indol-4-yl]-4-pentynoic acid] the value was more than 5.40.
On the same count and under the same terms, under `COC(=O)CCCC#Cc1cccc2c1/C(=C/c1[nH]ccc1OC)C(=O)N2` [E, (Z)-6-[2,3-Dihydro-3-[(3-methoxy-1H-pyrrol-2-yl)methylene]-2-oxo-1H-indol-4-yl]-5-hexynoic acid methyl ester] stands more than 5.40.
As to `COc1cc[nH]c1/C=C1\C(=O)Nc2cccc(C#CCCCCO)c21` [A, (Z)-1,3-Dihydro-4-(6-hydroxy-1-hexynyl)-3-[(3-methoxy-1H-pyrrol-2-yl)methylene]-2H-indol-2-one], the pIC50 on Cyclin E/CDK2 is more than 5.40.
As for `COc1cc[nH]c1/C=C1\C(=O)Nc2cccc(C#CC(C)(C)O)c21` [L, (Z)-1,3-Dihydro-4-(3-hydroxy-3-methyl-1-butynyl)-3-[(3-methoxy-1H-pyrrol-2-yl)methylene]-2H-indol-2-one], on Cyclin E/CDK2, the pIC50 was more than 5.40.
For the compound `COC(=O)NCC#Cc1cccc2c1/C(=C/c1[nH]ccc1OC)C(=O)N2` [LL, (Z)-[3-[2,3-Dihydro-3-[(3-methoxy-1H-pyrrol-2-yl)methylene]-2-oxo-1H-indol-4-yl]-2-propynyl]carbamic acid methyl ester], the pIC50 on Cyclin E/CDK2 is more than 5.40.
As for `CNCC#Cc1cccc2c1/C(=C/c1[nH]ccc1OC)C(=O)N2` [JJ, (Z)-1,3-Dihydro-3-[(3-methoxy-1H-pyrrol-2-yl)methylene]-4-[3-(N-methylamino)-1-propynyl]-2H-indol-2-one trifluoroacetate salt], the pIC50 on Cyclin E/CDK2 is more than 5.40.
As to `CCCC(C)(O)C#Cc1cccc2c1/C(=C/c1[nH]ccc1OC)C(=O)N2` (racemic) [N, rac-(Z)-1,3-Dihydro-4-(3-hydroxy-3-methyl-1-hexynyl)-3-[(3-methoxy-1H-pyrrol-2-yl)methylene]-2H-indol-2-one], the pIC50 at Cyclin E/CDK2 was more than 5.40.
As to `COc1cc[nH]c1/C=C1\C(=O)Nc2ccc(N)c(C#CCO)c21` [Compound BB, (Z)-5-Amino-1,3-dihydro-4-(3-hydroxy-1-propynyl)-3-[(3-methoxy-1H-pyrrol-2-yl)methylene]-2H-indol-2-one], at Cyclin E/CDK2, the pIC50 is more than 5.40.
Regarding `Cc1nc[nH]c1/C=C1\C(=O)Nc2ccc(F)c(C#CCC(C)O)c21` (racemic) [TT, rac-(Z)-1,3-Dihydro-5-fluoro-4-(4-hydroxy-1-pentynyl)-3-[(4-methyl-1H-imidazol-5-yl)methylene]-2H-indol-2-one, trifluoroacetate salt], the pIC50 on Cyclin E/CDK2 is more than 5.40; with MDA-MB-435, more than 5.46.
For `COc1cc[nH]c1/C=C1\C(=O)Nc2cccc(C#CCO)c21` [Y, (Z)-1,3-Dihydro-4-(3-hydroxy-1-propynyl)-3-[(3-methoxy-1H-pyrrol-2-yl)methylene]-2H-indol-2-one], the pIC50 on Cyclin E/CDK2 is more than 5.40.
For `COc1cc[nH]c1/C=C1\C(=O)Nc2cccc(C#CCOC(N)=O)c21` [MM, (Z)-Carbamic acid 3-[2,3-dihydro-3-[(3-methoxy-1H-pyrrol-2-yl)methylene]-2-oxo-1H-indol-4-yl]-2-propynyl ester], the pIC50 at Cyclin E/CDK2 is more than 5.40.
With `COc1cc[nH]c1/C=C1\C(=O)Nc2ccc([N+](=O)[O-])c(C#CCO)c21` [Z, (Z)-1,3-Dihydro-4-(3-hydroxy-1-propynyl)-3-[(3-methoxy-1H-pyrrol-2-yl)methylene]-5-nitro-2H-indol-2-one], at Cyclin E/CDK2, the inhibition at 1 µM is more than 90%.
In the case of `CCCCC[C@H](O)C#Cc1cccc2c1/C(=C/c1[nH]ccc1OC)C(=O)N2` [U, (S)-(Z)-1,3-Dihydro-4-(3-hydroxy-1-octynyl)-3-[(3-methoxy-1H-pyrrol-2-yl)methylene]-2H-indol-2-one], the pIC50 at Cyclin E/CDK2 is more than 5.40.
On Cyclin E/CDK2, `COC(=O)CCC#Cc1c([N+](=O)[O-])ccc2c1/C(=C/c1[nH]ccc1OC)C(=O)N2` [EE, (Z)-5-[2,3-Dihydro-3-[(3-methoxy-1H-pyrrol-2-yl)methylene]-5-nitro-2-oxo-1H-indol-4-yl]-4-pentynoic acid methyl ester] returned an inhibition at 1 µM of more than 60%.
Take `COC(=O)CCC#Cc1cccc2c1/C(=C/c1[nH]ccc1OC)C(=O)N2` [F, (Z)-5-[2,3-Dihydro-3-[(3-methoxy-1H-pyrrol-2-yl)methylene]-2-oxo-1H-indol-4-yl]-4-pentynoic acid methyl ester]: the pIC50 on Cyclin E/CDK2 is more than 5.40.
Same read-out and setting: for `COC(=O)C(CC#Cc1cccc2c1/C(=C/c1[nH]ccc1OC)C(=O)N2)C(=O)OC` [V, (Z)-[3-[2,3-Dihydro-3-[(3-methoxy-1H-pyrrol-2-yl)methylene]-2-oxo-1H-indol-4-yl]-2-propynyl]propanedioic acid dimethyl ester] the value was more than 5.40; for `COc1cc[nH]c1/C=C1\C(=O)Nc2cccc(C#CCN)c21` [II, (Z)-4-(3-Amino-1-propynyl)-1,3-dihydro-3-[(3-methoxy-1H-pyrrol-2-yl)methylene]-2H-indol-2-one trifluoroacetate salt], more than 5.40.
In the case of `COc1cc[nH]c1/C=C1\C(=O)Nc2cccc(C#CC3(O)CCCC3)c21` [AA, (Z)-1,3-Dihydro-4-[(1-hydroxycyclopentyl)ethynyl]-3-[(3-methoxy-1H-pyrrol-2-yl)methylene]-2H-indol-2-one], the pIC50 on Cyclin E/CDK2 is more than 5.40.

A word on the pIC50: it is −log10 of the IC50, conventionally taken in molar units. Broadly, the inhibition is the change of the read-out against control, counted positive when it falls. High values mean a strong effect, low ones a weak effect.
